Our source for the inhibition values is PMC7614683, “A small molecule PI3Kα activator for cardioprotection and neuroregeneration” (Nature, 2023).

What all share (test): SelectScreen Z-LYTE kinase activity assay (SI Table 6)
Common to all, as to type: biochemical

Assay [1] addresses protein kinases of the Z-LYTE panel (Homo sapiens, UniProt O75582). An outline of the steps: (§1)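 A counterscreen of 133 protein and 7 lipid kinases was run with one compound concentration, 1 μM 1938, in SelectScreen Adapta, Lantha or Z-LYTE assays.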
For assay [2], the target named is protein kinases of the Z-LYTE panel (Homo sapiens, UniProt P10721). In short, it runs like this:
as §1

Assay [3] addresses protein kinases of the Z-LYTE panel (Homo sapiens, UniProt P17252). In short, it runs like this: as §1
Assay [4] deals with T1, protein kinases of the Z-LYTE panel (Homo sapiens, UniProt P30530).
T1 sequence (P30530 26-894): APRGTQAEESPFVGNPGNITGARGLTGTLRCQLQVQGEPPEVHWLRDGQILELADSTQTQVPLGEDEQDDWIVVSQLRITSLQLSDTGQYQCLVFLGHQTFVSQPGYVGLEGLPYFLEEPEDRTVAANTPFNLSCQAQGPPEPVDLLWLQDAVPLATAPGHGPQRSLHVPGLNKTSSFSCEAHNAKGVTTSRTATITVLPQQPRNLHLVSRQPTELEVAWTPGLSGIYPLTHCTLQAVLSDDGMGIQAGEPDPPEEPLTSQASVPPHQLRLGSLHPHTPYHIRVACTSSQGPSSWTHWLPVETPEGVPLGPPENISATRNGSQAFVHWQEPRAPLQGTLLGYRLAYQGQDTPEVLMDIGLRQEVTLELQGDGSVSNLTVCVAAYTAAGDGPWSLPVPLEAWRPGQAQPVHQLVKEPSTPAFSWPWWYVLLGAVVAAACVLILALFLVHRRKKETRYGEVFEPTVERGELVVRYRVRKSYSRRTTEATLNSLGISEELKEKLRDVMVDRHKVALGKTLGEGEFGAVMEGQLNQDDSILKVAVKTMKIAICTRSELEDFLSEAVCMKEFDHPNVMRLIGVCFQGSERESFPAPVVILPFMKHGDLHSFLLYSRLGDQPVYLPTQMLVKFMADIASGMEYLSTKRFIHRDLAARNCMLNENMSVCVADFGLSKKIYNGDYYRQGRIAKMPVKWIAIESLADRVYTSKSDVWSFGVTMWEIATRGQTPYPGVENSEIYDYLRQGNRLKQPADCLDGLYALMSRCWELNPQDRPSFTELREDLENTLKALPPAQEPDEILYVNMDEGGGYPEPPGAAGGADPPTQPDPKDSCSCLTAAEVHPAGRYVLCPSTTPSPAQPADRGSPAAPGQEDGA
An outline of the steps:
as §1

In assay [5] the target is protein kinases of the Z-LYTE panel (Homo sapiens, UniProt P49760). An outline of the steps:
as §1

In assay [6] the target is protein kinases of the Z-LYTE panel (Homo sapiens, UniProt Q8N4C8). In short, it runs like this:
as §1

Read-outs that look alike come from different tables or passages of the source.

Sequence of protein kinases of the Z-LYTE panel (Homo sapiens, UniProt O75582) (O75582 whole entry): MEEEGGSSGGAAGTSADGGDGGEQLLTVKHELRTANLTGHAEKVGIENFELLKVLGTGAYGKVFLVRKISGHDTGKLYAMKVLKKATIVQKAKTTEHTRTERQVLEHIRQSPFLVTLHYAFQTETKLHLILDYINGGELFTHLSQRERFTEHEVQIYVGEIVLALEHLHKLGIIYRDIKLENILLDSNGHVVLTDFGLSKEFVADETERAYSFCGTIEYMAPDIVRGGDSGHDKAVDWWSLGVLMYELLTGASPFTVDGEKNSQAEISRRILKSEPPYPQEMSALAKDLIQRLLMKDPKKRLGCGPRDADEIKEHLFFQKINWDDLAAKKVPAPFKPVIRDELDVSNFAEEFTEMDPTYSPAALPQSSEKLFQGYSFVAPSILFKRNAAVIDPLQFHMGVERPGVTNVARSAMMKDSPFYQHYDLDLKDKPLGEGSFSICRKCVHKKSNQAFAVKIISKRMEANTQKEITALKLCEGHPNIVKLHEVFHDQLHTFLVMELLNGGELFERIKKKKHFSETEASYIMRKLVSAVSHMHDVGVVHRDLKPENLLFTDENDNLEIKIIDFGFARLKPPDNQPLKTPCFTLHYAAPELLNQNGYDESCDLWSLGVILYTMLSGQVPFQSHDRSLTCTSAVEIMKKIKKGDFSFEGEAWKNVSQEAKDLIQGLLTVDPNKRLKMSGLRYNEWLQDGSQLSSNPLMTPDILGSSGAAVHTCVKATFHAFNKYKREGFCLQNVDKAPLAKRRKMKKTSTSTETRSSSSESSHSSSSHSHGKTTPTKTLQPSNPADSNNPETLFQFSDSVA
Sequence of protein kinases of the Z-LYTE panel (Homo sapiens, UniProt P10721) (P10721 26-976): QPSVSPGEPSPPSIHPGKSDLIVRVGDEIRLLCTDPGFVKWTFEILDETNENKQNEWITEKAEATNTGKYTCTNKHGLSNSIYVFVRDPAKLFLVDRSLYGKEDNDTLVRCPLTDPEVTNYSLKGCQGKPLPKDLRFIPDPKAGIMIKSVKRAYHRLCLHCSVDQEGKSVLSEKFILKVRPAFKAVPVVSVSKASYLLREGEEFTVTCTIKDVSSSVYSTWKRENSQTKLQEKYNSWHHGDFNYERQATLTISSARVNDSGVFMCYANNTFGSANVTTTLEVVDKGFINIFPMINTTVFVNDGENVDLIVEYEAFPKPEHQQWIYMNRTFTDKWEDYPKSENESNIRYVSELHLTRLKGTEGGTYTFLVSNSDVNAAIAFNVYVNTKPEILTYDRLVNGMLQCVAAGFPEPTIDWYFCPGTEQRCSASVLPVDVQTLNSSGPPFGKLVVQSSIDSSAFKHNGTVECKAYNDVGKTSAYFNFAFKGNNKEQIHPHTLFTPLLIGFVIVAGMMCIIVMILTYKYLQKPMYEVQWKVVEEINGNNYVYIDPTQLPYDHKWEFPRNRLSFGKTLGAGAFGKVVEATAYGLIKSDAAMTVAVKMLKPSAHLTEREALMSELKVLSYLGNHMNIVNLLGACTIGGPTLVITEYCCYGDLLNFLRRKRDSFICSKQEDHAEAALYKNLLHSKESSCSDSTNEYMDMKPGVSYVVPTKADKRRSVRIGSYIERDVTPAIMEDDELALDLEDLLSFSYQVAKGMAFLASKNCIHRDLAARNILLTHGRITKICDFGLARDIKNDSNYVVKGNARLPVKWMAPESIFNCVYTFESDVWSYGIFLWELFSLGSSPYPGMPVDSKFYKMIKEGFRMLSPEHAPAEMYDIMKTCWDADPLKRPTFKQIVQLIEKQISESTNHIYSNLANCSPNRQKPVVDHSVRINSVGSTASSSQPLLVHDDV
Sequence of protein kinases of the Z-LYTE panel (Homo sapiens, UniProt P49760) (P49760 whole entry): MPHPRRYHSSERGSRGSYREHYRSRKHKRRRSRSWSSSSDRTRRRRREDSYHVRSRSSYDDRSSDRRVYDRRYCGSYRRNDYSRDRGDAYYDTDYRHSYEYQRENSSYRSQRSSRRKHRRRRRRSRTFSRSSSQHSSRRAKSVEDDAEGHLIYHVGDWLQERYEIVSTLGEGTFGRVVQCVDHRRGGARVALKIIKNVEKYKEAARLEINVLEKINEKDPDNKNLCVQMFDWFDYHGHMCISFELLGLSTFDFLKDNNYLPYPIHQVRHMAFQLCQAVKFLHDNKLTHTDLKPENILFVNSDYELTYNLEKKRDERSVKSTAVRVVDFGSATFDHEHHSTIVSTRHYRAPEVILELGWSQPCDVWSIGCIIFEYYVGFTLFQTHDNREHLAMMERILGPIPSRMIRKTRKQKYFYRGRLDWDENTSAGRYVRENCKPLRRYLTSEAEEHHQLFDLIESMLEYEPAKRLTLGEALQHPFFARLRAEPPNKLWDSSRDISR
Sequence of protein kinases of the Z-LYTE panel (Homo sapiens, UniProt Q8N4C8) (Q8N4C8 whole entry): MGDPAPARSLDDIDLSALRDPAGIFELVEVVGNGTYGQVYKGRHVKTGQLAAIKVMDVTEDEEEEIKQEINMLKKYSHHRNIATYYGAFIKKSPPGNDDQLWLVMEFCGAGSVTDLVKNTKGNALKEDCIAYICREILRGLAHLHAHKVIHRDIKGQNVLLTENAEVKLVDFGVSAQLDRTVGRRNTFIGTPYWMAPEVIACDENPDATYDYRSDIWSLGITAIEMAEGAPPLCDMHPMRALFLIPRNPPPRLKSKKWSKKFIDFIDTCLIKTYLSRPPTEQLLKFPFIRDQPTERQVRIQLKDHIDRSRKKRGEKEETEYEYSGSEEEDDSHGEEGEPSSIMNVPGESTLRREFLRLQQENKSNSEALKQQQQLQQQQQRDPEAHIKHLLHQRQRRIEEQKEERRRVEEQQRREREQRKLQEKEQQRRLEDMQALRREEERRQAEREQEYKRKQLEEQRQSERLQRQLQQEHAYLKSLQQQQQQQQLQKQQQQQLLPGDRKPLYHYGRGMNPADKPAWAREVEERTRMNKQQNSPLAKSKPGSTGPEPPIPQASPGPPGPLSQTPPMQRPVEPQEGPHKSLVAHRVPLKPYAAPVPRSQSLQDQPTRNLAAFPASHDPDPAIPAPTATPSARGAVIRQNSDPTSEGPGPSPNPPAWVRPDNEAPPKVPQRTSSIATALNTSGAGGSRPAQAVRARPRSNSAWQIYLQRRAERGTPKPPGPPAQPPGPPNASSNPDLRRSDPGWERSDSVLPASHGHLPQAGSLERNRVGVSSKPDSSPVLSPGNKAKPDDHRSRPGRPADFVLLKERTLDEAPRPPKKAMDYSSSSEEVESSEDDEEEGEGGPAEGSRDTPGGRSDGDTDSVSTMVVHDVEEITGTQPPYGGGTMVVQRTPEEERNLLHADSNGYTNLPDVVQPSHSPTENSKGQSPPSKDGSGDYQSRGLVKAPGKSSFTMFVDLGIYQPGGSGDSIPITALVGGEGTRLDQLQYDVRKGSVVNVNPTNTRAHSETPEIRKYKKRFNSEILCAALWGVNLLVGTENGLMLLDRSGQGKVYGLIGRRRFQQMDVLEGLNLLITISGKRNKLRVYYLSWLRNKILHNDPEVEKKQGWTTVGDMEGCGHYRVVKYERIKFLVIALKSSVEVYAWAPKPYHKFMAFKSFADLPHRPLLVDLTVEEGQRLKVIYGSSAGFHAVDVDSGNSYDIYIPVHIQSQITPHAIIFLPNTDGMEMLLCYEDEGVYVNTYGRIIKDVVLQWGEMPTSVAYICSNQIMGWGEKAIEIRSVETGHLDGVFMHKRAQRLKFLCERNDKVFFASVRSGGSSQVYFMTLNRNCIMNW

With `CCN1CCN(c2ccc(Nc3cc(Nc4cccc5c4N(C(C)=O)CC5)ccn3)cc2)CC1` [Compound 1938], the inhibition at 1 µM stood at 1.64% in assay [1] (read-out: % Inhibition Point 1); 4% in assay [1] (read-out: % Inhibition Point 2); 3% in assay [1] (read-out: % Inhibition mean); 6.43% in assay [2] (read-out: % Inhibition Point 1); 8% in assay [2] (read-out: % Inhibition Point 2); 7% in assay [2] (read-out: % Inhibition mean). The inhibition at 1 µM in assay [3] (read-out: % Inhibition Point 1) turned out to be 13%; in assay [3] (read-out: % Inhibition Point 2), 12%; in assay [3] (read-out: % Inhibition mean), 13%; in assay [4] (read-out: % Inhibition Point 1) it was 7%; in assay [4] (read-out: % Inhibition Point 2), 8%; in assay [4] (read-out: % Inhibition mean), 7.4%. Besides, the inhibition at 1 µM in assay [5] (read-out: % Inhibition Point 1) was 2.33%; in assay [5] (read-out: % Inhibition Point 2), 1.66%; in assay [5] (read-out: % Inhibition mean) it was 2%; in assay [6] (read-out: % Inhibition Point 1), 28%; in assay [6] (read-out: % Inhibition Point 2), 31%; in assay [6] (read-out: % Inhibition mean) it was 30%.

The term inhibition denotes the change of the read-out against control, counted positive when it falls.
